Laboratory results reported in patent US6369093B1, “Pyrazole carboxanilide fungicide” (Bayer Aktiengesellschaft, priority 1998, dated 2002).

Experiments:
Pyrenophora teres = Pyrenophora teres test (barley)/protective; type: in vivo; conditions: barley plants, protective spray, application rate 250 g/ha, evaluation 7 days after inoculation
Procedure: [table] To produce a suitable preparation of active compound, 1 part by weight of active compound is mixed with the stated amounts of solvent and emulsifier, and the concentrate is diluted with water to the desired concentration. To test for protective activity, young plants are sprayed with the preparation of active compound at the stated application rate. After the spray coating has dried on, the plants are sprayed with a conidia suspension of Pyrenophora teres. The plants remain in an incubation cabin at 20° C. and 100% relative atmospheric humidity for 48 hours. The plants are then placed in a greenhouse at a temperature of about 20° C. and a relative atmospheric humidity of about 80%. Evaluation is carried out 7 days after the inoculation. 0% means an efficacy which corresponds to that of the control, whereas an efficacy of 100% means that no infection is observed.

Venturia inaequalis = assay: Venturia test (apple)/protective; type: in vivo; conditions: apple plants, protective spray, application rate 100 g/ha, evaluation 12 days after inoculation
Procedure: To produce a suitable preparation of active compound, 1 part by weight of active compound is mixed with the stated amounts of solvent and emulsifier, and the concentrate is diluted with water to the desired concentration.
To test for protective activity, young plants are sprayed with the preparation of active compound at the stated application rate. After the spray coating has dried on, the plants are inoculated with an aqueous conidia suspension of the causative organism of apple scab Venturia inaequalis and then remain in an incubation cabin at 20° C. and 100% relative atmospheric humidity for 1 day.
The plants are then placed in a greenhouse at about 21° C. and a relative atmospheric humidity of about 90%.
Evaluation is carried out 12 days after the inoculation. 0% means an efficacy which corresponds to that of the control, whereas an efficacy of 100% means that no infection is observed.

Podosphaera leucotricha = assay: Podosphaera test (apple)/protective; type: in vivo; conditions: apple plants, protective spray, application rate 100 g/ha, evaluation 10 days after inoculation
Procedure: (§1) [table] To produce a suitable preparation of active compound, 1 part by weight of active compound is mixed with the stated amounts of solvent and emulsifier, and the concentrate is diluted with water to the desired concentration. To test for protective activity, young plants are sprayed with the preparation of active compound at the stated application rate. After the spray coating has dried on, the plants are inoculated with an aqueous spore suspension of the causative organism of apple mildew Podosphaera leucotricha. The plants are then placed in a greenhouse at about 23° C. and a relative atmospheric humidity of about 70%. Evaluation is carried out 10 days after the inoculation. 0% means an efficacy which corresponds to that of the control, whereas an efficacy of 100% means that no infection is observed.

Sphaerotheca fuliginea = assay: Sphaerotheca test (cucumber)/protective; type: in vivo; conditions: cucumber plants, protective spray, application rate 100 g/ha, evaluation 10 days after inoculation
Procedure: as §1, with “Afier” for “After”, “Sphaerotheca fuliginea.” for “the causative organism of apple mildew Podosphaera leucotricha.”, “placed” for “placed in a greenhouse”, “70% in a greenhouse.” for “70%.”

[1] = test system: Erysiphe graminis f. sp. hordei; assay: Erysiphe test (barley)/protective; type: in vivo; conditions: barley plants, protective spray, application rate 750 g/ha, evaluation 7 days after inoculation
Procedure: Erysiphe test (barley)/protective [table] To produce a suitable preparation of active compound, 1 part by weight of active compound is mixed with the stated amounts of solvent and emulsifier, and the concentrate is diluted with water to the desired concentration. To test for protective activity, young cereal plants are sprayed with the preparation of active compound at the stated application rate. 1 day after the treatment, the plants are inoculated with spores of Erysiphe graminis f. sp. hordei. The plants are then placed in a greenhouse at 70% relative atmospheric humidity and a temperature of 18° C. Evaluation is carried out 7 days after the inoculation. 0% means an efficacy which corresponds to that of the control, whereas an efficacy of 100% means that no infection is observed.

SMILES	melting point [°C]	Efficacy in % (Pyrenophora teres) [%]	Efficacy in % (Venturia inaequalis) [%]	Efficacy in % (Podosphaera leucotricha) [%]	Efficacy in % (Sphaerotheca fuliginea) [%]	Efficacy in % [1] [%]
Cc1nn(C)c(F)c1C(=O)Nc1ccccc1-c1cccc(C(F)(F)F)c1 [Example 9]	116	100	97	100	94	–
Cc1nn(C)c(F)c1C(=O)Nc1ccccc1-c1ccccc1C(F)(F)F [Example 4]	103	–	–	97	–	–
Cc1cccc(NC(=O)c2c(C)nn(C)c2F)c1-c1ccccc1 [Example 16]	144	–	–	–	–	94
Cc1cccc(NC(=O)c2c(C)nn(C)c2F)c1-c1ccc(Cl)cc1 [Example 17]	177	100	–	–	–	100
Cc1ccc(-c2ccccc2NC(=O)c2c(C)nn(C)c2F)cc1Cl [Example 8]	–	100	100	98	–	–

Now from value to compound, other results behind:

melting point [°C]	SMILES	Efficacy in % (Pyrenophora teres) [%]	Efficacy in % (Venturia inaequalis) [%]	Efficacy in % (Podosphaera leucotricha) [%]	Efficacy in % (Sphaerotheca fuliginea) [%]	Efficacy in % [1] [%]
127	Cc1nn(C)c(F)c1C(=O)Nc1ccccc1-c1ccc(Br)cc1 [Example 1, N-[2-(4-bromophcnyl)]-1,3-dimethyl-5-fluoro-pyrazole-4-carboxanilide]	100	100	100	95	100
113	Cc1nn(C)c(F)c1C(=O)Nc1ccccc1-c1ccccc1F [Example 5]	–	–	99	–	–
100	Cc1ccccc1-c1ccccc1NC(=O)c1c(C)nn(C)c1F [Example 2]	–	–	96	–	90
